Reference: patent publication US9266939B2, “Compositions comprising natriuretic peptides and methods of use thereof” (Alexion Pharmaceuticals, Inc., priority 2010, dated 2016)
“And” between values parts separate entries of the source, which are not always exact repeats. Equal entries are not always repeated. Bridge positions count the residues as written; N and C are the ends. Ends that are not written are not given here. Peptide text beside a SMILES is read from it.

What was measured:
[1] = biological target: T1, neutral endopeptidase (NEP) (Homo sapiens, UniProt P08473)
NPR-B [2] = biological target: T2, NPR-B (Homo sapiens, UniProt P20594); test: Membrane guanylyl cyclase (cGMP) assay, NPR-B; format: biochemical
T2 sequence (P20594 23-1047): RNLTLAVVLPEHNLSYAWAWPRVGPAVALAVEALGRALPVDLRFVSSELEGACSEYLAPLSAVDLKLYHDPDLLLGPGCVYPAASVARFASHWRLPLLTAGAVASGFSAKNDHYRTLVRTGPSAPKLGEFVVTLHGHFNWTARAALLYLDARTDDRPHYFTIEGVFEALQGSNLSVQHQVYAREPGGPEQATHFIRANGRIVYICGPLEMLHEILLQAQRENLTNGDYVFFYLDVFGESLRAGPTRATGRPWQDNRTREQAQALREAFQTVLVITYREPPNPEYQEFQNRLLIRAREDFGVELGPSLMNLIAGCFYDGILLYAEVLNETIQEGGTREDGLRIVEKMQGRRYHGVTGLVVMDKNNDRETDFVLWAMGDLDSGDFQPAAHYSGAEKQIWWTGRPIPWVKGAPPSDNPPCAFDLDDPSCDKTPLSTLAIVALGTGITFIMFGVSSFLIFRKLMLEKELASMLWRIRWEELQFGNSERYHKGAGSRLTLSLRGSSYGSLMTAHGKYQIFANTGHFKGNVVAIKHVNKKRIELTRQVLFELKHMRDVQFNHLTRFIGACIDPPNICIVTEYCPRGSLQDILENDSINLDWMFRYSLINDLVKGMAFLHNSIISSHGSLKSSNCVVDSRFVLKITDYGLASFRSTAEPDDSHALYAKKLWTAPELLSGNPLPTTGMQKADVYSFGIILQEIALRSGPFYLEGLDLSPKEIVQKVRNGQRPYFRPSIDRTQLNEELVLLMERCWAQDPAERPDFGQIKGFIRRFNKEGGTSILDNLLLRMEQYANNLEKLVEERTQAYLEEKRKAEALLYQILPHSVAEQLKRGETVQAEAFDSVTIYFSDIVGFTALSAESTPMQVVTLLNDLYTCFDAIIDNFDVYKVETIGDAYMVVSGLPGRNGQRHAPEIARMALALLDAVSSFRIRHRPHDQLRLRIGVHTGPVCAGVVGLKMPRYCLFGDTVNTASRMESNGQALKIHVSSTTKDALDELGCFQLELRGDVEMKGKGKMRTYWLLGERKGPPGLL

NPR-A = NPR-A (Homo sapiens, UniProt P16066); format: biochemical
NPR-B [3] = biological target: T2, NPR-B; test: Whole cell guanylyl cyclase (cGMP) assay, NPR-B; format: cell-based; set-up: expressed in transfected cells; settings: for Emax: read-out: % Efficacy
Method: HEK293S cells in a semi-confluent 75 cm2 flask are transfected with 30 μg of plasmid DNA coding for the appropriate receptor, e.g., human NPR-B or NPR-A, using Lipofectamine-2000CD. Alternatively, a stable polyclonal HEK293 S cell line expressing either human NPR-B or NPR-A was used. 24 hours after transfection, cells are trypsinized and plated into 48-well plates at 1×10^5 cells/well. Guanylyl cyclase assay is carried out 24 hours post-plating. Cells are first incubated for 30 minutes at 37° C. with serum-free DMEM medium. Then, they are incubated in triplicate with or without increasing concentrations of reference or test proteins in serum-free DMEM supplemented with 1 mM IBMX and 0.5% BSA, at 37° C. for 30 minutes to one hour. CNP serves as a suitable reference for NPR-B, while ANP is a suitable reference for NPR-A. Finally, cells are washed with ice-cold PBS and solubilized in lysis buffer from Catchpoint cGMP kit (Molecular devices). Concentrations of cGMP in lysate are determined using the Catchpoint cGMP kit. Dose-response curves are analysed with GraphPad Prism 5 software using non-linear regression with four-parameter logistic equation.

[4] = biological target: T1, neutral endopeptidase (NEP); test: in vitro; settings: isolated enzyme neprilysin, pH 7.5

Chain of NPR-A (P16066 33-1061): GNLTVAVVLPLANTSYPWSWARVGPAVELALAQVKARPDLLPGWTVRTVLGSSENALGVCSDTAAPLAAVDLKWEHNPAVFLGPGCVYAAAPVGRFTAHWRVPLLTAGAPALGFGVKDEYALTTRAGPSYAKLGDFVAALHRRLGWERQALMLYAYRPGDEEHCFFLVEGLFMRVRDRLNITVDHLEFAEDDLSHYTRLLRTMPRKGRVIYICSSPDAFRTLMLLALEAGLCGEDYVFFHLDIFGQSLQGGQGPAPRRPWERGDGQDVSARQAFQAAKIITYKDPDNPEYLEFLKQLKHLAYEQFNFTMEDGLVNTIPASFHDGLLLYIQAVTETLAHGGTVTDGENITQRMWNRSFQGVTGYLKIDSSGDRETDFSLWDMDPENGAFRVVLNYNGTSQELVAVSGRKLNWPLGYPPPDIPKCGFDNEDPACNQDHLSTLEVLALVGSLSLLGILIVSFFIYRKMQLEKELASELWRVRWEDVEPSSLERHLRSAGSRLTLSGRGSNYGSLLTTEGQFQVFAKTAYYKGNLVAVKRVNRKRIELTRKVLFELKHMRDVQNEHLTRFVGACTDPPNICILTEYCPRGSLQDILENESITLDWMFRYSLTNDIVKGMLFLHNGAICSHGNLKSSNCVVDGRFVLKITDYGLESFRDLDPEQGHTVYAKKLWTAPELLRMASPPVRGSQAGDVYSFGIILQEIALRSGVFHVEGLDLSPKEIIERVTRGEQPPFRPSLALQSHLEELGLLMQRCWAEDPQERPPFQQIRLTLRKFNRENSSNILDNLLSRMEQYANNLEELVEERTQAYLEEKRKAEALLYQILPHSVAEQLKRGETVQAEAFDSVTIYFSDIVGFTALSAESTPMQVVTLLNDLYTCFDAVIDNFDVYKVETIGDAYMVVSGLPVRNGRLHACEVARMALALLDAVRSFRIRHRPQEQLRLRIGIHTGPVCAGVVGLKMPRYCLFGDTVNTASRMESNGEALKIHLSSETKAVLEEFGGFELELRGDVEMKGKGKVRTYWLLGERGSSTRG
T1 sequence (P08473 whole entry): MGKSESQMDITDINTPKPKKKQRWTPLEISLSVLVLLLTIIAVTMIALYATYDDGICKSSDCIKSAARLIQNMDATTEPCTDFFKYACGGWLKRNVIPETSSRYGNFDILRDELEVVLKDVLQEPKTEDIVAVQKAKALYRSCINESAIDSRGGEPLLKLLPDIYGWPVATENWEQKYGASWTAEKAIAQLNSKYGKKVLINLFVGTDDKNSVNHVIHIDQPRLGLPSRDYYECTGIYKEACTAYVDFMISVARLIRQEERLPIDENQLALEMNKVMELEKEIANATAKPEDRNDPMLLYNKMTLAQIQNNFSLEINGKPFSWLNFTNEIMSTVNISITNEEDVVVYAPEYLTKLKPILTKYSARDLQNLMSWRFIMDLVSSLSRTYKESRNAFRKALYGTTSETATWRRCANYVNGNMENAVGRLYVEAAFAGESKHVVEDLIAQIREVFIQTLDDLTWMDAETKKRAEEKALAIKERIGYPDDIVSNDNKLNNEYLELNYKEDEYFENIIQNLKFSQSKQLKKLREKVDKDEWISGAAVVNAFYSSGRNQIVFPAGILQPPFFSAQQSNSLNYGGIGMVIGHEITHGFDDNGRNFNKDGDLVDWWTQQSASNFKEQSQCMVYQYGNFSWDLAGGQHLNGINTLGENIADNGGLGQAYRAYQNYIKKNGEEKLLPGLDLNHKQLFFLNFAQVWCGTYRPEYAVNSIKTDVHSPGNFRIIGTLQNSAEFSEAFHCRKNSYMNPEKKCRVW

| Molecule | sensitivity to NEP degradation [1] | Approximate fold gain in selectivity versus CDNP (NPR-B [2]) | Approximate fold selectivity NPR-B versus NPR-A (NPR-B [2]) [fold] | NPR-B selective efficacy gain (NPR-B [2]) [%] | % efficacy versus CDNP on NPR-A (NPR-A) | % loss in efficacy versus CDNP (NPR-A) [%] | Resist NEP degradation (No/Yes) [1] | EC50 Ratio versus CNP22 (NPR-B [3]) | Rescue Ratio Average (NPR-B [3]) | Rescue Ratio versus CNP22 (NPR-B [3]) | Rescue range (NPR-B [3]) [nM] | EC50 (NPR-B [3]) [µM] | Emax (NPR-B [3]) [%] | remaining at 4 h [4] [%] | % of control after 240 min [1] [%] |
| --- | --- | --- | --- | --- | --- | --- | --- | --- | --- | --- | --- | --- | --- | --- | --- |
| CC[C@H](C)[C@@H]1NC(=O)[C@H](CCCNC(=N)N)NC(=O)[C@H](CC(=O)O)NC(=O)[C@H](CC(C)C)NC(=O)[C@H](CCCCN)NC(=O)[C@H](CC(C)C)NC(=O)CNC(=O)[C@H](Cc2ccccc2)NC(=O)[C@@H](NC(=O)CNC(=O)[C@H](CCCCN)NC(=O)[C@H](CO)NC(=O)[C@H](CC(C)C)NC(=O)CN)CSSC[C@@H](C(=O)N2CCC[C@H]2C(=O)N[C@@H](CO)C(=O)N[C@@H](CO)C(=O)N[C@@H](C)C(=O)N[C@@H](C)C(=O)N2CCC[C@H]2C(=O)N[C@@H](CCCNC(=N)N)C(=O)N2CCC[C@H]2C(=O)N[C@@H](CC(N)=O)C(=O)N[C@@H](C)C(=O)N2CCC[C@H]2C(=O)N[C@@H](CO)C(=O)N[C@H](C(=O)N[C@@H](CO)C(=O)N[C@@H](C)C(=O)O)[C@@H](C)O)NC(=O)CNC(=O)[C@H](CC(C)C)NC(=O)CNC(=O)[C@H](CO)NC(=O)[C@H](CCSC)NC(=O)[C@H](CO)NC(=O)CNC1=O [CDNP-SAA] (HELM PEPTIDE1{G.L.S.K.G.C.F.G.L.K.L.D.R.I.G.S.M.S.G.L.G.C.P.S.S.A.A.P.R.P.N.A.P.S.T.S.A}$PEPTIDE1,PEPTIDE1,6:R3-22:R3$$$V2.0) | slightly more sensitive to NEP than CDNP | 15 fold and 14.9 fold | 43.5 | 69 | 34-69% | 69 | – | – | – | – | – | – | – | – | – |
| CC[C@H](C)[C@@H]1NC(=O)[C@H](CCCNC(=N)N)NC(=O)[C@H](CC(=O)O)NC(=O)[C@H](CC(C)C)NC(=O)[C@H](CCCCN)NC(=O)[C@H](CC(C)C)NC(=O)CNC(=O)[C@H](Cc2ccccc2)NC(=O)[C@@H](NC(=O)CNC(=O)[C@H](CCCCN)NC(=O)[C@H](CO)NC(=O)[C@H](CC(C)C)NC(=O)CN)CSSC[C@@H](C(=O)N2CCC[C@H]2C(=O)N[C@@H](CO)C(=O)N[C@@H](CO)C(=O)N[C@@H](C)C(=O)N[C@@H](CC(=O)O)C(=O)N2CCC[C@H]2C(=O)N[C@@H](CCCNC(=N)N)C(=O)N2CCC[C@H]2C(=O)N[C@@H](CC(N)=O)C(=O)N[C@@H](C)C(=O)N2CCC[C@H]2C(=O)N[C@@H](CO)C(=O)N[C@H](C(=O)N[C@@H](CO)C(=O)N[C@@H](C)C(=O)O)[C@@H](C)O)NC(=O)CNC(=O)[C@H](CC(C)C)NC(=O)CNC(=O)[C@H](CO)NC(=O)[C@H](CCSC)NC(=O)[C@H](CO)NC(=O)CNC1=O [CDNP-SAD] (HELM PEPTIDE1{G.L.S.K.G.C.F.G.L.K.L.D.R.I.G.S.M.S.G.L.G.C.P.S.S.A.D.P.R.P.N.A.P.S.T.S.A}$PEPTIDE1,PEPTIDE1,6:R3-22:R3$$$V2.0) | comparable NEP sensitivity | 28 fold and 28.5 fold | 83.2 | 27 | – | 27 | – | – | – | – | – | – | – | – | – |
| EEEEEESGGGGSGGGKGANKQGLSKGCFGLKLDRIGSMSGLGC (disulfide 27-43) [C6(E6) [BC6]] | – | – | – | – | – | – | Yes | 45.7 | 63 | 55-70 | 132 to 973 | 0.672 | 88 | 98 | – |
| EEEEEESGGGGSGGGKGANQKGLSKGCFGLKLDRIGSMSGLGC (disulfide 27-43) [C7(E6) [BC7]] | – | – | – | – | – | – | Yes | 68.6 | 80 | 74-85 | 177 to 1193 | 1.01 | 95 | 98 | – |
| EEEEEESGGGGSGGGKGANQQGLSKGCFGLKLDRIGSMSGLGC (disulfide 27-43) [C9(E6) [BC9]] | – | – | – | – | – | – | Yes | 79.3 | 87 | 76-97 | 183 to 1358 | 1.17 | 95 | 98 | – |
| EEEEEESGGGGSGGGQGANKKGLSKGCFGLKLDRIGSMSGLGC (disulfide 27-43) [C8(E6) [BC8]] | – | – | – | – | – | – | Yes | 48.9 | 52 | 48-56 | 116 to 779 | 0.719 | 97 | 103 | – |
| EEEEEESGGGGSGGGQGANKQGLSKGCFGLKLDRIGSMSGLGC (disulfide 27-43) [C11(E6) [BC11]] | – | – | – | – | – | – | Yes | 60.4 | 120 | – | 289 to 1662 | 0.888 | 95 | 102 | – |
| EEEEEESGGGGSGGGQGANQKGLSKGCFGLKLDRIGSMSGLGC (disulfide 27-43) [C10(E6) [BC10]] | – | – | – | – | – | – | Yes | 168 | 90 | 89-90 | 213 to 1253 | 2.47 | 156 | 102 | – |
| EEEEEESGGGGSGGGQGANQQGLSKGCFGLKLDRIGSMSGLGC (disulfide 27-43) [C5(E6) [BC5]] | – | – | – | – | – | – | Yes | 161 | 138 | – | 334 to 1899 | 2.36 | 96 | 100 | – |
| GLSKGCFGLKLDRIGSMSGLGCGGGGSGGGGSGGGGDDDDDD (disulfide 6-22) [CNP-14AAlinker-D6 [C4]] | – | – | – | – | – | – | Yes | 146 | 545 | 375-714 | 900 to 10000 | 2.14 | 156 | 75 | 75 |
